Measured values published in PubChem BioAssay AID2060494 (Molecular Pharmacology Branch, DTP, NCI, 2025).
pIC50: −log10 of the molar value.

Test system: 435261-313-R-J1-PDC complex spheroid viability
Assay: Anticancer human tumor 435261-313-R-J1-PDC patient-derived colon adenocarcinoma cell line growth inhibition [GQUAD]
Details: for pIC50: curve of first compound; for viability, T/C: stronger effect = lower value
Excerpt: DNA G-quadruplex Stabilizer Agents in Combinations in Complex Spheroids
A high-throughput screen of multi-cell type tumor spheroids was designed to identify active combinations of DNA G-quadruplex stabilizer agents and targeted small molecules. Complex spheroids include a stromal component modeled by human endothelial cells (HUVEC) and fibroblasts modeled by human mesenchymal stem cells (MSCs). The concentration ranges selected for each drug and investigational agent were based upon clinically achievable concentrations if the clinical Cmax of the agent was known.
Compounds. The drugs and investigational agents: pidnarulex (CX-5461; NSC782164), APTO-253 (NSC789042), BRACO-19 (NSC847499), peposertib (NSC802822), ceralasertib (NSC780249), elimusertib (NSC800525), camonsertib (NSC841442), AZD-1390 (NSC803789), olaparib (NSC753686), talazoparib (NSC767125), ART-558 (NSC835418), sotorasib (NSC818433), MRTX-1133 (NSC836407), SN-38 (NSC673596), topotecan (NSC609699), etoposide (NSC141540), doxorubicin (NSC123127), gemcitabine (NSC613327), 5-fluorouracil (NSC19893), paclitaxel (NSC125973), vemurafenib (NSC761431), panobinostat (NSC761190), R-306465 (JNJ-16241199; NSC773264), adavosertib (NSC754352), TP-3654 (NSC805149), carboplatin (NSC241240), KSQ-4279 (NSC840948), and staurosporine (NSC755774) were obtained from the National Cancer Institute (NCI) Developmental Therapeutics Program Chemical Repository (34). The FDA-approved anticancer drug set is available from the NCI Developmental Therapeutics Program. […] The stock solutions were prepared in dimethyl sulfoxide (DMSO, Sigma-Aldrich, St. Louis, MO, cat. D2650) at 800-fold the tested concentration and stored at -70 degrees C prior to their use. All drugs and investigational agents were tested over a range starting from a high concentration at or near the clinical Cmax and decreasing in half-log increments. If the clinical Cmax for an agent had not been determined, the highest concentration tested was 10 microM.
2.3 Cell Culture. All cells were maintained in an incubator at 37 degrees C and 5% CO2 with 95% humidity. The PDC lines were cultured according to standard operating procedures established by the NCI PDMR. All PDCs were thawed and cultured in Matrigel-coated flasks prepared with a working solution of 1X Ham's F-12 nutrient mix, without supplementation (Invitrogen, cat. 11765054), 100 U/mL penicillin-streptomycin (Invitrogen, cat. 15140122), and 2.5% Matrigel (Corning Inc., cat. 354248) for the first three passages. The 857933-349-R-J2-PDC line was cultured in 6C/Colon 1B media, which includes advanced DMEM/F-12 (Thermo Fisher Scientific, cat. 12634028), 10 mM HEPES (Thermo Fisher Scientific, cat. 15630080), 1X GlutaMAX supplement (Thermo Fisher Scientific, cat. 35050061), 0.1 mg/mL primocin (InvivoGen, cat. ant-pm-2), 10% defined fetal bovine serum, heat inactivated (HyClone Laboratories Inc., cat. SH30070.03HI), 50% L-WRN conditioned media (ATCC, cat. CRL-3276), 1.25 mM N-Acetyl-L-cysteine (Sigma-Aldrich, cat. A9165), 10 mM nicotinamide (Sigma-Aldrich, cat. N0636), 1X B-27 supplement (Thermo Fisher Scientific, cat. 17504044), 1X N-2 supplement (Thermo Fisher Scientific, cat. 17502048), 10 microM Y-27632 dihydrochloride (Tocris Bioscience, cat. 1254), and 50 ng/mL human EGF recombinant protein (Thermo Fisher Scientific, cat. PHG0311). The 485176-168-R4-J1-PDC line was cultured in Panc media, which includes all 6C/Colon 1B media components plus 100 ng/mL human FGF-10 (Thermo Fisher Scientific, cat. 100-26), 500 nM SB-431542 (Selleckchem, cat. S1067), and gastrin (Tocris, cat. 3006).
[…]
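Further: spheroids exposed to the agents for seven days before readout.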
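Wherever viability, T/C is given: percent of vehicle control viability with DMSO wells as 100%.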

pIC50 (second compound 0.0316 µM): < 5.00
pIC50 (second compound 0.1 µM): 6.58
pIC50 (second compound 0.316 µM): 5.65
pIC50 (second compound 1 µM): > 7.50
pIC50 (second compound 3.16 µM): > 7.50
pIC50 (second compound 10 µM): > 7.50
SMILES: C=CCn1c(=O)c2cnc(Nc3ccc(N4CCN(C)CC4)cc3)nc2n1-c1cccc(C(C)(C)O)n1 + Cc1cnc(CNC(=O)c2c(=O)c3ccc(N4CCCN(C)CC4)nc3n3c2sc2ccccc23)cn1
viability, T/C (second compound 0.0316 µM, first compound 0.0316 µM): 67.6%
viability, T/C (second compound 0.0316 µM, first compound 0.1 µM): 59.2%
viability, T/C (second compound 0.0316 µM, first compound 0.316 µM): 59.4%
viability, T/C (second compound 0.0316 µM, first compound 1 µM): 57%
viability, T/C (second compound 0.0316 µM, first compound 3.16 µM): 52.7%
viability, T/C (second compound 0.0316 µM, first compound 10 µM): 51.3%
viability, T/C (second compound 0.1 µM, first compound 0.0316 µM): 61.3%
viability, T/C (second compound 0.1 µM, first compound 0.1 µM): 56.1%
viability, T/C (second compound 0.1 µM, first compound 0.316 µM): 44.4%
viability, T/C (second compound 0.1 µM, first compound 1 µM): 47.8%
viability, T/C (second compound 0.1 µM, first compound 3.16 µM): 54.4%
viability, T/C (second compound 0.1 µM, first compound 10 µM): 42.4%
viability, T/C (second compound 0.316 µM, first compound 0.0316 µM): 54%
viability, T/C (second compound 0.316 µM, first compound 0.1 µM): 59.2%
viability, T/C (second compound 0.316 µM, first compound 0.316 µM): 49.9%
viability, T/C (second compound 0.316 µM, first compound 1 µM): 52.9%
viability, T/C (second compound 0.316 µM, first compound 3.16 µM): 49.6%
viability, T/C (second compound 0.316 µM, first compound 10 µM): 36.8%
viability, T/C (second compound 1 µM, first compound 0.0316 µM): 34.9%
viability, T/C (second compound 1 µM, first compound 0.1 µM): 39.6%
viability, T/C (second compound 1 µM, first compound 0.316 µM): 36.2%
viability, T/C (second compound 1 µM, first compound 1 µM): 39.1%
viability, T/C (second compound 1 µM, first compound 3.16 µM): 41.2%
viability, T/C (second compound 1 µM, first compound 10 µM): 30.5%
viability, T/C (second compound 3.16 µM, first compound 0.0316 µM): 14%
viability, T/C (second compound 3.16 µM, first compound 0.1 µM): 4.69%
viability, T/C (second compound 3.16 µM, first compound 0.316 µM): 8.48%
viability, T/C (second compound 3.16 µM, first compound 1 µM): 4.99%
viability, T/C (second compound 3.16 µM, first compound 3.16 µM): 5.92%
viability, T/C (second compound 3.16 µM, first compound 10 µM): 0.17%
viability, T/C (second compound 10 µM, first compound 0.0316 µM): 0.17%
viability, T/C (second compound 10 µM, first compound 0.1 µM): 0.17%
viability, T/C (second compound 10 µM, first compound 0.316 µM): 0.19%
viability, T/C (second compound 10 µM, first compound 1 µM): 0.16%
viability, T/C (second compound 10 µM, first compound 3.16 µM): 0.19%
viability, T/C (second compound 10 µM, first compound 10 µM): 0.15%
